In patent US12139520B2 (priority 2020, dated 2024):
Numbered stars: 1 amine (or outer) side, 2 acyl side, 3 side chain; on linkers, the order of the positions; unused ones are H or OH. Bridge positions count the residues as written; N and C are the ends. Square brackets hold non-standard residues; d marks the D form. Peptide text beside a SMILES is read from it. * marks the point of attachment. C20 diacid = O=C(O)CCCCCCCCCCCCCCCCCCC(=O)*; γGlu = O=C(O)[C@H](CCC(=O)[*:2])N[*:1]; Hyp = O=C(O)[C@@H]1C[C@@H](O)CN1; Cit = NC(=O)NCCC[C@H](N)C(=O)O

Key:
hAM1 receptor = hAM1 receptor (Homo sapiens, UniProt O60895+Q16602); experiment: cAMP assay for in vitro receptor activation, hAM1-R; assay type: cell-based; details: cAMP assay, hAM1 receptor; read-out: hAM1R EC50
Method: General Protocols for cAMP Assays for Measuring In Vitro Receptor Activation
Cells stably overexpressing the hAM1 receptor were obtained from Ogeda (now Astellas Pharma), sub-cloned and a monoclonal cell-line with an appropriate assay-window was expanded, aliquoted and frozen. An aliquot was thawed and plated in DPBS with 0.05% casein and 0.5 mM IBMX as 8000 cells/well in a 384-well format.

hAMY3 receptor = biological target: T1, hAMY3 receptor (Homo sapiens, UniProt O60896+P30988); experiment: cAMP assay for in vitro receptor activation, hAMY3-R; assay type: cell-based; details: cAMP assay, hAMY3 receptor; read-out: hAMY3R EC50
T1 sequence (P30988 25-474): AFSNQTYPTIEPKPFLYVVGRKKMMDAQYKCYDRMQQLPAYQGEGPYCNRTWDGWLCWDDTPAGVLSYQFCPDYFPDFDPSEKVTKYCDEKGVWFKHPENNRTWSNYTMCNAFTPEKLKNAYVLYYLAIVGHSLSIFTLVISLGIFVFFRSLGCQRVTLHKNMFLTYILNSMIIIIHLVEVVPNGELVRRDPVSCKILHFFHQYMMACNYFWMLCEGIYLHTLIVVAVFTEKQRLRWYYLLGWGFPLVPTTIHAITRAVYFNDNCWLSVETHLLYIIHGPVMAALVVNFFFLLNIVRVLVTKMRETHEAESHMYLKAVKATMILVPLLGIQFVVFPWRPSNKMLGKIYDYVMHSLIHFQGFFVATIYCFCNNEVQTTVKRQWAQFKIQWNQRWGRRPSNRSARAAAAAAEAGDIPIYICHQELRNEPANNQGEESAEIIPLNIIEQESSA
T1 sequence (O60896 24-148 partner): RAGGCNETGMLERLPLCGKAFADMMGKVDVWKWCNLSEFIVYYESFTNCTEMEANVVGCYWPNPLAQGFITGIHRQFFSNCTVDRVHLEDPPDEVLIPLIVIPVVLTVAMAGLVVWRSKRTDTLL
Procedure, shortened: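 Monoclonal cell line stably overexpressing hAMY3 receptor, plated in DPBS with 0.05% casein and 0.5 mM IBMX, was stimulated with graded compound doses for 30 min at room temperature. cAMP accumulation was read by time-resolved FRET one hour after adding detection reagents.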

Chain of hAM1 receptor (Q16602 23-461): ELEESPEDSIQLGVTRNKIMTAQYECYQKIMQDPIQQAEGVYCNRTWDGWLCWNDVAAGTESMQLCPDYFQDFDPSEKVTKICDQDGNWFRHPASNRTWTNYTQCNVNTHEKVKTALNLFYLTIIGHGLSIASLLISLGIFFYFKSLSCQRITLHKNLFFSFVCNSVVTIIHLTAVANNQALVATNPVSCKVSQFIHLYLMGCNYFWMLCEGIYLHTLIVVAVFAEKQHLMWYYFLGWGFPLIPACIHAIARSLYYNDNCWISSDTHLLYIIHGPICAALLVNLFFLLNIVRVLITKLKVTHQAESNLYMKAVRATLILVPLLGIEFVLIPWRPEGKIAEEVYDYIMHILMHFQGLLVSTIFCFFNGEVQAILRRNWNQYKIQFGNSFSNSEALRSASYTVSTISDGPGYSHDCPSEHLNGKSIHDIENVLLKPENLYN
Chain of hAM1 receptor (O60895 43-175 partner): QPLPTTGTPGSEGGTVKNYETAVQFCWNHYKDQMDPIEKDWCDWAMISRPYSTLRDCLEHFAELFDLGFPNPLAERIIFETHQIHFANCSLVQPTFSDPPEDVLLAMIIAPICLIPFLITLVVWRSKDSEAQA

EC50 (hAM1 receptor) [nM]	EC50 (hAMY3 receptor) [nM]	SMILES
> 5000	0.007	CC[C@H](C)[C@H](NC(=O)[C@H](CCC(N)=O)NC(=O)[C@H](Cc1c[nH]cn1)NC(=O)[C@H](C)NC(=O)[C@H](CC(C)C)NC(=O)[C@H](CCCNC(=N)N)NC(=O)[C@H](CCC(N)=O)NC(=O)[C@@H](NC(=O)[C@@H](NC(=O)[C@@H]1CSSC[C@H](NC(=O)[C@H](CCCCN)NC(=O)CC[C@H](NC(=O)CCCCCCCCCCCCCCCCCCC(=O)O)C(=O)O)C(=O)N[C@@H](CC(N)=O)C(=O)N[C@@H]([C@@H](C)O)C(=O)N[C@@H](C)C(=O)N[C@@H]([C@@H](C)O)C(=O)N1)[C@@H](C)O)C(C)C)C(=O)N[C@@H](CC(N)=O)C(=O)N[C@@H](CCC(N)=O)C(=O)N[C@@H](Cc1ccccc1)C(=O)N[C@H](C(=O)N[C@@H](CC(=O)O)C(=O)N[C@@H](CCCCN)C(=O)N[C@@H](CC(=O)O)C(=O)N[C@@H](CCCCN)C(=O)N[C@@H](CC(=O)O)C(=O)N[C@@H](CC(N)=O)C(=O)N[C@H](C(=O)N[C@@H](C)C(=O)N1CCC[C@H]1C(=O)N1CCC[C@H]1C(=O)N[C@H](C(=O)N[C@@H](CC(N)=O)C(=O)N[C@H](C(=O)NCC(=O)N[C@@H](CO)C(=O)N[C@@H](CC(N)=O)C(=O)NCC(=O)N1C[C@H](O)C[C@H]1C(N)=O)C(C)C)[C@@H](C)O)C(C)C)[C@@H](C)O [compound 11] ({C20 diacid-γGlu}-KCNTATCTVQRLAHQINQFTDKDKDNVAPPTNVGSNG[Hyp]-NH2; disulfide 2-7)
> 5000	0.014	CC[C@H](C)[C@H](NC(=O)[C@H](CCC(N)=O)NC(=O)[C@H](Cc1c[nH]cn1)NC(=O)[C@H](C)NC(=O)[C@H](CC(C)C)NC(=O)[C@H](CCCNC(=N)N)NC(=O)[C@H](CCC(N)=O)NC(=O)[C@@H](NC(=O)[C@@H](NC(=O)[C@@H]1CSSC[C@H](NC(=O)[C@H](CCCCN)NC(=O)CC[C@H](NC(=O)CCCCCCCCCCCCCCCCCCC(=O)O)C(=O)O)C(=O)N[C@@H](CC(N)=O)C(=O)N[C@@H]([C@@H](C)O)C(=O)N[C@@H](C)C(=O)N[C@@H]([C@@H](C)O)C(=O)N1)[C@@H](C)O)C(C)C)C(=O)N[C@@H](C)C(=O)N[C@@H](CCC(N)=O)C(=O)N[C@@H](Cc1ccccc1)C(=O)N[C@@H](CO)C(=O)N[C@@H](CC(=O)O)C(=O)N[C@@H](CCCCN)C(=O)N[C@@H](CC(=O)O)C(=O)N[C@@H](CCCCN)C(=O)N[C@@H](CC(=O)O)C(=O)N[C@@H](CC(N)=O)C(=O)N[C@H](C(=O)N[C@@H](C)C(=O)N1CCC[C@H]1C(=O)N1CCC[C@H]1C(=O)N[C@H](C(=O)N[C@@H](CC(N)=O)C(=O)N[C@H](C(=O)NCC(=O)N[C@@H](CO)C(=O)N[C@@H](CC(N)=O)C(=O)NCC(=O)N1C[C@H](O)C[C@H]1C(N)=O)C(C)C)[C@@H](C)O)C(C)C [compound 79] ({C20 diacid-γGlu}-KCNTATCTVQRLAHQIAQFSDKDKDNVAPPTNVGSNG[Hyp]-NH2; disulfide 2-7)
> 5000	0.019	CC[C@H](C)[C@H](NC(=O)[C@H](CCC(N)=O)NC(=O)[C@H](CCC(=O)O)NC(=O)[C@H](C)NC(=O)[C@H](CC(C)C)NC(=O)[C@H](CCCNC(=N)N)NC(=O)[C@H](CCC(N)=O)NC(=O)[C@@H](NC(=O)[C@@H](NC(=O)[C@@H]1CSSC[C@H](NC(=O)[C@H](CCCCN)NC(=O)CC[C@H](NC(=O)CCCCCCCCCCCCCCCCCCC(=O)O)C(=O)O)C(=O)N[C@@H](CC(N)=O)C(=O)N[C@@H]([C@@H](C)O)C(=O)N[C@@H](C)C(=O)N[C@@H]([C@@H](C)O)C(=O)N1)[C@@H](C)O)C(C)C)C(=O)N[C@@H](Cc1ccc(O)cc1)C(=O)N[C@@H](CCC(N)=O)C(=O)N[C@@H](Cc1ccccc1)C(=O)N[C@H](C(=O)N[C@@H](CC(=O)O)C(=O)N[C@@H](CCCCN)C(=O)N[C@@H](CC(=O)O)C(=O)N[C@@H](CCCCN)C(=O)N[C@@H](C)C(=O)N[C@@H](CC(N)=O)C(=O)N[C@H](C(=O)N[C@@H](C)C(=O)N1CCC[C@H]1C(=O)N1CCC[C@H]1C(=O)N[C@H](C(=O)N[C@@H](CC(N)=O)C(=O)N[C@H](C(=O)NCC(=O)N[C@@H](CO)C(=O)N[C@@H](CC(N)=O)C(=O)NCC(=O)N1C[C@H](O)C[C@H]1C(N)=O)C(C)C)[C@@H](C)O)C(C)C)[C@@H](C)O [compound 108] ({C20 diacid-γGlu}-KCNTATCTVQRLAEQIYQFTDKDKANVAPPTNVGSNG[Hyp]-NH2; disulfide 2-7)
> 5000	0.082	CC[C@H](C)[C@H](NC(=O)[C@H](C)NC(=O)CNC(=O)[C@H](Cc1ccccc1)NC(=O)[C@H](CC(N)=O)NC(=O)[C@H](CC(N)=O)NC(=O)[C@H](CO)NC(=O)[C@H](CO)NC(=O)[C@H](Cc1c[nH]cn1)NC(=O)[C@@H](NC(=O)[C@H](CC(C)C)NC(=O)[C@H](Cc1ccccc1)NC(=O)[C@H](CC(N)=O)NC(=O)[C@H](C)NC(=O)[C@H](CC(C)C)NC(=O)[C@H](CCCNC(=N)N)NC(=O)[C@H](CCC(N)=O)NC(=O)[C@@H](NC(=O)[C@H](C)NC(=O)[C@@H]1CSSC[C@H](NC(=O)[C@@H](N)CCCCN)C(=O)N[C@@H](CC(N)=O)C(=O)N[C@@H]([C@@H](C)O)C(=O)N[C@@H](C)C(=O)N[C@@H]([C@@H](C)O)C(=O)N1)[C@@H](C)O)C(C)C)C(=O)N[C@@H](CC(C)C)C(=O)N1CCC[C@H]1C(=O)N[C@@H](CO)C(=O)N[C@H](C(=O)N[C@@H](CCCCN)C(=O)N[C@H](C(=O)NCC(=O)N[C@@H](CO)C(=O)N[C@@H](CC(N)=O)C(=O)N[C@H](C(=O)N[C@@H](Cc1ccc(O)cc1)C(N)=O)[C@@H](C)O)[C@@H](C)CC)[C@@H](C)O [compound 180] (H-KCNTATCATQRLANFLVHSSNNFGAILPSTKIGSNTY-NH2; disulfide 2-7; N-terminus assumed)
> 5000	0.041	CC[C@H](C)[C@H](NC(=O)[C@H](CCC(N)=O)NC(=O)[C@H](CCC(=O)O)NC(=O)[C@H](C)NC(=O)[C@H](CC(C)C)NC(=O)[C@H](CCCNC(N)=O)NC(=O)[C@H](CCC(N)=O)NC(=O)[C@@H](NC(=O)[C@@H](NC(=O)[C@@H]1CSSC[C@H](NC(=O)[C@H](CCCCN)NC(=O)CC[C@H](NC(=O)CCCCCCCCCCCCCCCCCCC(=O)O)C(=O)O)C(=O)N[C@@H](CC(N)=O)C(=O)N[C@@H]([C@@H](C)O)C(=O)N[C@@H](C)C(=O)N[C@@H]([C@@H](C)O)C(=O)N1)[C@@H](C)O)C(C)C)C(=O)N[C@@H](C)C(=O)N[C@@H](CCC(N)=O)C(=O)N[C@@H](Cc1ccccc1)C(=O)N[C@H](C(=O)N[C@@H](CC(=O)O)C(=O)N[C@@H](CCCCN)C(=O)N[C@@H](CC(=O)O)C(=O)N[C@@H](CCCCN)C(=O)N[C@@H](CC(=O)O)C(=O)N[C@@H](CC(N)=O)C(=O)N[C@H](C(=O)N[C@@H](C)C(=O)N1CCC[C@H]1C(=O)N1CCC[C@H]1C(=O)N[C@H](C(=O)N[C@@H](CC(N)=O)C(=O)N[C@H](C(=O)NCC(=O)N[C@@H](CO)C(=O)N[C@@H](CC(N)=O)C(=O)NCC(=O)N1C[C@H](O)C[C@H]1C(N)=O)C(C)C)[C@@H](C)O)C(C)C)[C@@H](C)O [compound 153] ({C20 diacid-γGlu}-KCNTATCTVQ[Cit]LAEQIAQFTDKDKDNVAPPTNVGSNG[Hyp]-NH2; disulfide 2-7)
> 5000	0.011	CC[C@H](C)[C@H](NC(=O)[C@H](CCC(N)=O)NC(=O)[C@H](Cc1c[nH]cn1)NC(=O)[C@H](C)NC(=O)[C@H](CC(C)C)NC(=O)[C@H](CCCNC(=N)N)NC(=O)[C@H](CCC(N)=O)NC(=O)[C@@H](NC(=O)[C@@H](NC(=O)[C@@H]1CSSC[C@H](NC(=O)[C@H](CCCCN)NC(=O)CC[C@H](NC(=O)CCCCCCCCCCCCCCCCCCC(=O)O)C(=O)O)C(=O)N[C@@H](CC(N)=O)C(=O)N[C@@H]([C@@H](C)O)C(=O)N[C@@H](CO)C(=O)N[C@@H]([C@@H](C)O)C(=O)N1)[C@@H](C)O)C(C)C)C(=O)N[C@@H](Cc1ccc(O)cc1)C(=O)N[C@@H](CCC(N)=O)C(=O)N[C@@H](Cc1ccccc1)C(=O)N[C@H](C(=O)N[C@@H](CC(=O)O)C(=O)N[C@@H](CCCCN)C(=O)N[C@@H](CC(=O)O)C(=O)N[C@@H](CCCCN)C(=O)N[C@@H](CC(=O)O)C(=O)N[C@@H](CC(N)=O)C(=O)N[C@H](C(=O)N[C@@H](C)C(=O)N1CCC[C@H]1C(=O)N1CCC[C@H]1C(=O)N[C@H](C(=O)N[C@@H](CC(N)=O)C(=O)N[C@H](C(=O)NCC(=O)N[C@@H](CO)C(=O)N[C@@H](CC(N)=O)C(=O)NCC(=O)N1C[C@H](O)C[C@H]1C(N)=O)C(C)C)[C@@H](C)O)C(C)C)[C@@H](C)O [compound 50] ({C20 diacid-γGlu}-KCNTSTCTVQRLAHQIYQFTDKDKDNVAPPTNVGSNG[Hyp]-NH2; disulfide 2-7)
